# In patent US8710241B2, “Crystalline form of zofenopril calcium” (Generics [UK]Limited, priority 2007, dated 2014):
# Counter-ions that a name gives are not always drawn.
# Legend:
# [1] = Water vapour sorption isotherm (Surface Measurement Systems DVS-HT); type: physicochemical; conditions: 25° C.; for Maximum water uptake: high/elevated relative humidity levels (greater than 90% rh), calcium salt
# Experimental: Equilibrium water uptake levels of less than 0.5 wt % were observed up to a relative humidity level of 70% rh, which may be considered the uppermost limit of ambient humidity conditions.
# Determination of the water vapour sorption isotherms of zofenopril calcium crystalline form D according to the invention and of the prior art form B were performed by Surface Measurement Systems DVS-HT. The resultant isotherms, as shown in FIGS. 4 and 5 respectively, were obtained under the following parameters: • Temperature=25° C. • Humidity profile: Desorption 1: 50-0% relative humidity (rh) in steps of 10% • Adsorption: 0-90% rh in steps of 10%, 95% rh • Desorption 2: 95% rh, 90-50% rh in steps of 10% • Equilibration time per rh stage: 240 min (0% rh), 180 min (all other rh levels)
# [2] = DSC and XRPD experiments on polymorphic transition; type: physicochemical; conditions: up to temperatures of ca. 140° C.
# Experimental: The X-ray powder diffraction data was obtained by methods known in the art using a Bruker D8 Advance Powder Diffractometer with scintillation detector under the following parameters: • Reflectance mode • Cu Kα radiation (1.5406 Å) • Scanning range: 2-30 °2θ • Step size: 0.02 °2θ • Time per step: 6s
# [3] = Conditioning (equilibration) of dried samples, characterised by XRPD; type: physicochemical; conditions: conditioned at 30° C. for 30 minutes under nitrogen after drying
# Experimental: Approximately 100 mg of zofenopril calcium were dried at 50° C. for 120 minutes under a nitrogen flow atmosphere (flow rate: 500 ml/min). The sample was finally conditioned at 30° C. for 30 minutes under the nitrogen gas atmosphere.
# The drying processes as detailed in the above examples yield the novel anhydrous form D of zofenopril calcium according to the invention. […] Thus, the compounds prepared by examples 1-5 were determined to be the same crystalline form and were distinct from the prior art forms A, B, and C. Further, the samples were then ‘conditioned’, i.e. they were allowed to equilibrate.
# [4] = TGA, 25-105° C.
# Experimental: The compounds obtained by the processes according to the invention as described above and in the following examples were also subjected to thermogravimetric analysis (TGA). […] The TGA analysis data was obtained using a Mettler-Toledo TGA851e apparatus under the following parameters: • Temperature profile: 25-300° C.@5° C./min • Nitrogen purge gas: 50 ml/min • Aluminium pan: 40 μl, pierced prior to scan
SMILES,Maximum water uptake [1],Equilibrium water uptake ([1]; up to a relative humidity level of 70% rh),"Re-conversion to hydrate form C upon exposure to water vapour ([1]; water vapour sorption isotherm, 0-95% rh)",Polymorphic transition [2],Conversion upon cooling to hydrated form C or another crystalline form [3],"Weight loss, equivalent to loss on drying (LOD) [4]"
"C[C@H](CSC(=O)c1ccccc1)C(=O)N1C[C@@H](Sc2ccccc2)C[C@H]1C(=O)O [form B, (4S)-1-[(2S)-3-(benzoylthio)-2-methylpropionyl]-4-(phenylthio)-L-proline calcium salt, reference compound]",approximately 2.5 wt %,–,–,–,–,–
"C[C@H](CSC(=O)c1ccccc1)C(=O)N1C[C@@H](Sc2ccccc2)C[C@H]1C(=O)O [form D, (4S)-1-[(2S)-3-(benzoylthio)-2-methylpropionyl]-4-(phenylthio)-L-proline calcium salt]",ca. 1 wt %,less than 0.5 wt %,does not easily re-convert to hydrate form C,no polymorphic transition,no conversion,less than 0.5 wt %
